Source: paper PMC6327487, “A cytosolic NAD^+-dependent GPDH from maize (ZmGPDH1) is involved in conferring salt and osmotic stress tolerance” (BMC Plant Biology, 2019)

T1: ZmGPDH1 (Zea mays, UniProt A0A345VNI6)
T1 construct: gene GPDH1; full-length CDS (458 residues, 51 kDa; 1377 bp) in pET32a(+) NcoI/XhoI, 6xHis fusion of about 65 kDa, E. coli Rosetta (DE3), Ni-NTA
T1 sequence (A0A345VNI6 1-458): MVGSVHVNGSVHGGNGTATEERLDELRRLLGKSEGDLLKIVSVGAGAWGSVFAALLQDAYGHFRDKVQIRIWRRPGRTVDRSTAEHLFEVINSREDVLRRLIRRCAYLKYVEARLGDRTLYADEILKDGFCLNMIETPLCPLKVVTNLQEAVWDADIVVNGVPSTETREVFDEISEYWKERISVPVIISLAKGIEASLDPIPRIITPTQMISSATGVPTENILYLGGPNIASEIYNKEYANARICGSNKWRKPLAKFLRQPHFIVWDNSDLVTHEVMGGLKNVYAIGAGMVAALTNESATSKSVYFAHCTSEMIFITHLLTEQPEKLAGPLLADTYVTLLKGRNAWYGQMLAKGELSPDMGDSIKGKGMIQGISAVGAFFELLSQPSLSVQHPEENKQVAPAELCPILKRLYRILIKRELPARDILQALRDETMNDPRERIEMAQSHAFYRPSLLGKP

B1: ZmGPDH1 (Zea mays subsp. mays) (protein)
chain: T1 sequence (A0A345VNI6 1-458)
notes: full-length CDS (458 residues, 51 kDa; 1377 bp) in pET32a(+) NcoI/XhoI, 6xHis fusion of about 65 kDa, E. coli Rosetta (DE3), Ni-NTA

What was measured:
ZmGPDH1 = molecular target: T1, ZmGPDH1; assay: GPDH activity with and without NADH; format: biochemical; details: 4 mM DHAP, 0.2 mM NADH, 100 mM HEPES pH 6.9 (general assay)
purified protein = substrate: O=C(CO)COP(=O)(O)O; assay: purified protein; format: biochemical, Zea mays; details: DHAP reduction, 0.2 mM NADH, 100 mM HEPES pH 6.9 (general assay)

Molecule	GPDH activity with and without NADH (ZmGPDH1)	Km (purified protein) [µM]
NC(=O)C1=CN([C@@H]2O[C@H](COP(=O)(O)OP(=O)(O)OC[C@H]3O[C@@H](n4cnc5c(N)ncnc54)[C@H](O)[C@@H]3O)[C@@H](O)[C@H]2O)C=CC1 [NADH]	addition of NADH strongly stimulated the enzyme activity	
B1		2750
